# Test results as given in ChEMBL document CHEMBL1140059, “Discovery of potent and selective small-molecule PAR-2 agonists” (J Med Chem, 2008).
# pEC50: −log10 of the molar value. The source made the active and inactive calls. The rule behind the calls is not given here. Square brackets hold non-standard residues; d marks the D form. Peptide text beside a SMILES is read from it. * marks the point of attachment. Orn = NCCC[C@H](N)C(=O)O; 2Furoyl = O=C(c1ccco1)*
# Experiments:
# [1] = target: T1, Proteinase-activated receptor 2 (Homo sapiens, UniProt P55085); assay: Agonist activity at human PAR2 expressed in HEK293T cells assessed as effect on intracellular calcium mobilization by R-SAT assay; format: functional, cell-based, HEK-293T
# T1 sequence (P55085 whole entry): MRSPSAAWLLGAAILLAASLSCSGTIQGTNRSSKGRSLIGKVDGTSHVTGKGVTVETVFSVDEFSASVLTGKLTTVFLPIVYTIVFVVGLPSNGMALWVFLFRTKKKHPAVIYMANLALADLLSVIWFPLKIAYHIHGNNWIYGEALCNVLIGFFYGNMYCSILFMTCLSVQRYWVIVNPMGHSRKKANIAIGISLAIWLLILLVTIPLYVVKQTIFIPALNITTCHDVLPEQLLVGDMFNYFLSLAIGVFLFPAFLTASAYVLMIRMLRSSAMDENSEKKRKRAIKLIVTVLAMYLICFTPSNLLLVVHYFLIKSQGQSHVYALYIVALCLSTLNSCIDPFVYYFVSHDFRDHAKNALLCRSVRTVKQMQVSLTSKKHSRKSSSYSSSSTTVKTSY
# [2] = target: Proteinase-activated receptor 2 (Homo sapiens) (UniProt P55085); assay: Agonist activity at human PAR2 expressed in HEK293T cells assessed as effect on intracellular calcium mobilization by R-SAT assay relative to SLIGRL-NH2; format: functional, cell-based; details: HEK-293T
# [3] = target: Proteinase-activated receptor 2 (Homo sapiens) (UniProt P55085); assay: Agonist activity at human PAR2 expressed in HEK293T cells assessed as effect on phosphatidyl inositol hydrolysis; format: functional, cell-based; details: HEK-293T
# [4] = target: T2, Proteinase-activated receptor 1 (Homo sapiens) (UniProt P25116); assay: Agonist activity at PAR1; format: functional
# T2 sequence (whole entry): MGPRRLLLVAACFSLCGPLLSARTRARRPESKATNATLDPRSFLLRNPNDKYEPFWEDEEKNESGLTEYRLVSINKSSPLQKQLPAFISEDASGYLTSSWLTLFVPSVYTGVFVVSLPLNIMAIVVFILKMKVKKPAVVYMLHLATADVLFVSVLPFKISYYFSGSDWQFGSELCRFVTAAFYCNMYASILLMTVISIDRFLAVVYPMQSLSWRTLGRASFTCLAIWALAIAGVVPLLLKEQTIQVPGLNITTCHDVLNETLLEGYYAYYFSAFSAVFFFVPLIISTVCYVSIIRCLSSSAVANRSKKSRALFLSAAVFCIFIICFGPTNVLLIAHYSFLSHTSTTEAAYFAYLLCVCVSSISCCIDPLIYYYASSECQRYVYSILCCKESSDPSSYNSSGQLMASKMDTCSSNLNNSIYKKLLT
# [5] = target: T3, Proteinase-activated receptor 4 (Homo sapiens) (UniProt Q96RI0); assay: Agonist activity at PAR4; format: functional
# T3 sequence (whole entry): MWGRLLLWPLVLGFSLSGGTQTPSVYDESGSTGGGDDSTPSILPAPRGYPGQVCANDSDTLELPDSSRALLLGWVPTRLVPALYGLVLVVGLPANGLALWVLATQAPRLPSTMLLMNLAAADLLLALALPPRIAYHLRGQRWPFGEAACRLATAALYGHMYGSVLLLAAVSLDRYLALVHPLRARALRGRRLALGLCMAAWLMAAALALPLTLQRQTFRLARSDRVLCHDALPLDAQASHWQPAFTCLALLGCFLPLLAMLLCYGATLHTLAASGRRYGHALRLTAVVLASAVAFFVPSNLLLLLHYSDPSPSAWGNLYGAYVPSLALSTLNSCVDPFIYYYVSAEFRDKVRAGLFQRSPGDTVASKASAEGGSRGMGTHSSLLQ
# [6] = target: T4, Proteinase-activated receptor 3 (Homo sapiens) (UniProt O00254); assay: Agonist activity at PAR3; format: functional
# T4 sequence (whole entry): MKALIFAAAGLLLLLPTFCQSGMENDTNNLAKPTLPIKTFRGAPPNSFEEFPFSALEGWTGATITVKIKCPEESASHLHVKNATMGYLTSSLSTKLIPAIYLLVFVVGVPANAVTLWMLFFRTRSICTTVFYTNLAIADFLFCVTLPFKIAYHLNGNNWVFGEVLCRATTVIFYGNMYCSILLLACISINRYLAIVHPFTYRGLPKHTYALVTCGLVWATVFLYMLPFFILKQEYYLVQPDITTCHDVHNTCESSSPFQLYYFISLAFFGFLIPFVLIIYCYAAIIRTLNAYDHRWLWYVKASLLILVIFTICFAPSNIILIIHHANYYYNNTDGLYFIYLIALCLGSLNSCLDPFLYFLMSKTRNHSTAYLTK
# Rattus norvegicus [7] = assay: Induction of inflammation assessed as incidence of paw edema in intrapaw dosed rat; format: functional, organism-based
# Rattus norvegicus [8] = assay: Induction nociception assessed as incidence of thermal hyperalgesia in intrapaw dosed rat; format: functional, organism-based
# [9] = Metabolic stability in rat liver microsomes assessed as intrinsic clearance; format: ADME, Microsome
# [10] = Metabolic stability in human liver microsomes assessed as intrinsic clearance; format: ADME, Microsome
# [11] = Solubility in presence of 25% Tween; format: physicochemical
Molecule,pEC50 [1],Efficacy [2] [%],also measured
C/C(=N\NC(=O)[C@@H]1C(=O)NC[C@H]1c1ccccc1)c1cccc(Br)c1 (stereo in doubt; (+)-3) [listing 1 of 2 here],7.50,–,–
O=C1NC[C@@H](c2ccccc2)[C@@H]1C(=O)N/N=C1\CCc2ccc(Br)cc21,6.90,62,–
C/C(=N\NC(=O)[C@@H]1C(=O)NC[C@H]1c1ccccc1)c1cccc(Br)c1 (stereo in doubt; 3) [listing 1 of 2 here],–,93,Activity [3]: Active; Activity [4]: inactive; Activity [5]: inactive; Activity [6]: inactive; Activity (Rattus norvegicus [7]): Dose-dependent effect; Activity (Rattus norvegicus [8]): Dose-dependent effect
C/C(=N\NC(=O)[C@@H]1C(=O)NC[C@H]1c1ccccc1)c1cccc(Br)c1 (stereo in doubt; (-)-3) [listing 1 of 2 here],–,10,–
C/C(=N\NC(=O)[C@@H]1C(=O)NC[C@H]1c1ccccc1)c1cccc(Br)c1 (stereo in doubt; (-)-3) [listing 2 of 2 here],< 5.00,–,–
CC[C@H](C)[C@H](NC(=O)[C@H](CC(C)C)NC(=O)c1ccco1)C(=O)NCC(=O)N[C@@H](CCCN=C(N)N)C(=O)N[C@@H](CC(C)C)C(=O)N[C@@H](CCCN)C(N)=O (2Furoyl-LIGRL[Orn]-NH2),7.60,–,–
C/C(=N\N(C)C(=O)[C@@H]1C(=O)NC[C@H]1c1ccccc1)c1cccc(Br)c1,5.20,35,–
CC[C@H](C)[C@H](NC(=O)[C@H](CC(C)C)NC(=O)c1ccco1)C(=O)NCC(=O)N[C@@H](CCCNC(=N)N)C(=O)N[C@@H](CC(C)C)C(=O)N[C@@H](CCCN)C(N)=O (2Furoyl-LIGRL[Orn]-NH2),–,89,–
C/C(=N\NC(=O)[C@@H]1C(=O)NC[C@H]1c1ccccc1)c1cccc(Br)c1 (stereo in doubt; 3) [listing 2 of 2 here],7.50,–,microsomal CLint [9]: 37 µL/min/mg; microsomal CLint [10]: 9 µL/min/mg; solubility [11]: > 2000 µg/mL
C/C(=N\NC(=O)[C@@H]1C(=O)NC[C@H]1c1cccc(Br)c1)c1cccc(Br)c1,7.60,82,–
C/C(=N\NC(=O)[C@@H]1C(=O)NC[C@H]1c1ccccc1)c1cccc(Br)c1 (stereo in doubt; (+)-3) [listing 2 of 2 here],–,91,–
C/C(=N\NC(=O)[C@@H]1C(=O)NC[C@H]1c1ccccc1)c1ccccc1Br,5.00,11,–
C/C(=N\NC(=O)[C@@H]1C(=O)NC[C@H]1c1ccccc1)c1ccc(Br)s1,5.60,49,–
H-SLIGRL-NH2,5.00,100,–
C/C(=N\NC(=O)[C@@H]1C(=O)NC[C@H]1c1ccccc1)c1cccs1,5.20,30,–
CC(C)=CN1C[C@@H](c2ccccc2)[C@H](C(=O)N/N=C(\C)c2cccc(Br)c2)C1=O,7.30,72,–
C/C(=N\NC(=O)C(NC(=O)c1ccccc1)c1n[nH]c(=O)c2ccccc12)c1cccc(Br)c1 (stereo not given),6.70,81,Activity [3]: Active; microsomal CLint [9]: 6 µL/min/mg; microsomal CLint [10]: 19 µL/min/mg; Activity [4]: inactive; Activity [5]: inactive; Activity [6]: inactive; Activity (Rattus norvegicus [7]): Dose-dependent effect; Activity (Rattus norvegicus [8]): Dose-dependent effect
C/C(=N\NC(=O)[C@@H]1C(=O)NC[C@H]1c1ccccc1)c1ccc(Br)cc1,5.10,32,–
